≈ marks a conversion by molar mass, not a printed value.
Test system: PT22AV
Assay: Minimum inhibitory concentration of fungicides in NYDA agar
Conditions: for MIC: Papiliotrema terrestris, read-out: Minimum inhibitory concentration; for Resistance level: resistance level of PT22AV to the fungicide; for Minimum inhibitory concentration: fungicide against PT22AV, incorporated in NYDA agar

Q: How did the MIC turn out when C=CC1(C)OC(=O)N(c2cc(Cl)cc(Cl)c2)C1=O (stereo not drawn) [Vinclozolin] was run?
A: 1000 µg/mL (≈ 3.5 mM)

Q: What about the Resistance level of the same compound?
A: Resistant

Q: Which results are given for Mancozeb?
A: Minimum inhibitory concentration: 300 mg/L; Resistance level: Sensitive

Q: With CON=C(C(=O)OC)c1ccccc1CON=C(C)c1cccc(C(F)(F)F)c1 [Trifloxystrobin] as the compound, how does the MIC read?
A: 1000 µg/mL (≈ 2.45 mM)

Q: What about the Resistance level of the same compound?
A: Resistant

Q: For CCCCNC(=O)n1c(NC(=O)OC)nc2ccccc21 [Benomyl], which MIC is on record?
A: 1000 µg/mL (≈ 3.44 mM)

Q: What about the Resistance level of the same compound?
A: Resistant

Q: For [Cl-].[Cu+2].[Cu+2].[OH-].[OH-].[OH-] [Copper oxychloride], which Minimum inhibitory concentration is on record?
A: 500 mg/L

Q: And the Resistance level?
A: Resistant

Q: Which results are given for COC(=O)Nc1nc2ccccc2[nH]1 [Carbendazim]?
A: MIC: 1000 µg/mL (≈ 5.23 mM); Resistance level: Resistant

Q: CC12CC1(C)C(=O)N(c1cc(Cl)cc(Cl)c1)C2=O (stereo not drawn) [Procymidone] was tested. Which MIC did it give?
A: 1000 µg/mL (≈ 3.52 mM)

Q: And the Resistance level?
A: Resistant

Q: CCCC(Cn1cncn1)c1ccc(Cl)cc1Cl (stereo not drawn) [Penconazol] was tested. Which MIC did it give?
A: 200 µg/mL (≈ 0.704 mM)

Q: What about the Resistance level of the same compound?
A: Sensitive

Q: S1SSSSSSS1 [Sulfur] was tested. Which MIC did it give?
A: 2000 µg/mL (≈ 7.8 mM)

Q: What about the Resistance level of the same compound?
A: Resistant

Q: What does the source list for CO/C=C(/C(=O)OC)c1ccccc1Oc1cc(Oc2ccccc2C#N)ncn1 [Azoxystrobin]?
A: Minimum inhibitory concentration: 1000 mg/L (≈ 2.48 mM); Resistance level: Resistant

Q: Which results are given for C=CCOC(Cn1ccnc1)c1ccc(Cl)cc1Cl (stereo not drawn) [Imazalil]?
A: MIC: 300 µg/mL (≈ 1.01 mM); Resistance level: Sensitive

Q: With N#Cc1c[nH]cc1-c1cccc2c1OC(F)(F)O2 [Fludioxonil] as the compound, how does the MIC read?
A: 1000 µg/mL (≈ 4.03 mM)

Q: How did the MIC turn out when c1ccc2[nH]c(-c3cscn3)nc2c1 [Thiabendazole] was run?
A: 1000 µg/mL (≈ 4.97 mM)

Q: What about the Resistance level of the same compound?
A: Resistant

Q: Which MIC does the source give for CC(C)(C)C(O)(CCc1ccc(Cl)cc1)Cn1cncn1 (stereo not drawn) [Tebuconazole] here?
A: 100 µg/mL (≈ 0.325 mM)

Q: And the Resistance level?
A: Sensitive

Source: patent publication US20240188569A1, “NEW YEAST STRAIN AND ITS USES FOR THE CONTROL OF PHYTOPATHOGENS” (AGROVENTURES LLC, priority 2021, published 2024)
